US11059800B2, “Dehydroleucodine derivatives and uses thereof” (Bioventures, LLC, priority 2013, dated 2021)

Columns and labels:
Kasumi-1 = test: Cytotoxicity, annexin V/7-AAD viability by flow cytometry, Kasumi-1; format: cell-based, human; conditions: Kasumi-1, 48 hours, drug range tested 1.25-160 μM
Procedure: (§1) In order to assess the structure-activity relationship of DHL and its derivatives, DHL and its derivatives were evaluated against eight human leukemia cell lines. Cell lines were cultured in Iscove's Modified Dulbecco's Medium (IMDM) supplemented with 10%˜20% fetal bovine serum (FBS) according to culture conditions indicated by ATCC and 1% penicillin/streptomycin (Pen/Strep) at 37° C. and 5% CO2. The cells were seeded into 96-well plates and kept at a concentration of 0.5 million cells per mL. The samples were treated with DHL, Leucodine, DHL-Morpholine, DHL-Proline, DHL-Piperidine, and PTL at varying concentrations in triplicates. Cell viability was determined after incubating for 48 hours. The cells were stained with annexin V-fluorescein isothiocyanate or phycoeritrine (FITC/PE) and 7-aminoactinomycin (7-AAD) to detect phosphatidylserine exposition and cell permeability, respectively. At least 50,000 events were recorded per condition on either an LSR-II or LSR-Fortessa flow cytometer (BD Biosciences). Data analysis was conducted using FlowJo 9.6 software for Mac OS X (TreeStar). Cells that were negative for annexin V and 7-AAD were scored as viable.

MOLM-13 = test: Cytotoxicity, annexin V/7-AAD viability by flow cytometry, MOLM-13; format: cell-based, human; conditions: MOLM-13, 48 hours, drug range tested 1.25-160 μM
Procedure: as §1

THP-1 = test: Cytotoxicity, annexin V/7-AAD viability by flow cytometry, THP-1; format: cell-based, human; conditions: THP-1, 48 hours, drug range tested 1.25-160 μM
Procedure: as §1

TUR = test: Cytotoxicity, annexin V/7-AAD viability by flow cytometry, TUR; format: cell-based, human; conditions: 48 hours, drug range tested 1.25-160 μM
Procedure: as §1

HL-60 = test: Cytotoxicity, annexin V/7-AAD viability by flow cytometry, HL-60; format: cell-based, human; conditions: HL-60, 48 hours, drug range tested 1.25-160 μM
Procedure: as §1

MV4-11 = test: Cytotoxicity, annexin V/7-AAD viability by flow cytometry, MV4-11; format: cell-based, human; conditions: MV4-11, 48 hours, drug range tested 1.25-160 μM
Procedure: as §1

U-937 = test: Cytotoxicity, annexin V/7-AAD viability by flow cytometry, U-937; format: cell-based, human; conditions: U-937, 48 hours, drug range tested 1.25-160 μM
Procedure: as §1

KG-1 = test: Cytotoxicity, annexin V/7-AAD viability by flow cytometry, KG-1; format: cell-based, human; conditions: KG-1, 48 hours, drug range tested 1.25-160 μM
Procedure: In order to assess the structure-activity relationship of DHL and its derivatives, DHL and its derivatives were evaluated against eight human leukemia cell lines. Cell lines were cultured in Iscove's Modified Dulbecco's Medium (IMDM) supplemented with 10%˜20% fetal bovine serum (FBS) according to culture conditions indicated by ATCC and 1% penicillin/streptomycin (Pen/Strep) at 37° C. and 5% CO2. […] Cell viability was determined after incubating for 48 hours.

[1] = test system: eight human leukemia cell lines
Procedure: Cell lines were cultured in Iscove's Modified Dulbecco's Medium (IMDM) supplemented with 10%˜20% fetal bovine serum (FBS) according to culture conditions indicated by ATCC and 1% penicillin/streptomycin (Pen/Strep) at 37° C. and 5% CO2. The cells were seeded into 96-well plates and kept at a concentration of 0.5 million cells per mL. […] Cell viability was determined after incubating for 48 hours. The cells were stained with annexin V-fluorescein isothiocyanate or phycoeritrine (FITC/PE) and 7-aminoactinomycin (7-AAD) to detect phosphatidylserine exposition and cell permeability, respectively. At least 50,000 events were recorded per condition on either an LSR-II or LSR-Fortessa flow cytometer (BD Biosciences). Data analysis was conducted using FlowJo 9.6 software for Mac OS X (TreeStar). Cells that were negative for annexin V and 7-AAD were scored as viable.

HSPA1A = test: Quantitative PCR of HSPA1A in MOLM-13 or MV-411 cells; format: cell-based; conditions: 20 μM, 6 hours, MOLM-13 and MV-411 cells
Procedure: (§2) (FIG. 8A) Graphical representation of the fold changes of HMOX-1 in MOLM-13 cells. Cells were seeded at 0.5 million cells per milliliter and subject to 20 μM of DHL, leucodine, DHL-proline, DHL-piperidine, DHL-morpholine, or parthenolide for 6 hours. RNA was then extracted and quantitative PCR was performed. Experiments were performed in triplicates. Lines represent mean for each specimen, with error bars representing the SD. Fold change was calculated by the delta-delta Ct method. […] (FIG. 8D) Immunoblot for MOLM-13 cells after 6 hours of treatment with either DHL or PTL with 10 or 20 μM. Blot was probed for phospho-p65 and p65 antibodies. Total p65 is shown as the loading control.
(§3) (FIG. 9A) Graphical representation of the fold changes of HMOX-1 in MV-411 cells. Cells were seeded at 0.5 million cells per milliliter and subject to 20 μM of DHL, leucodine, DHL-proline, DHL-piperidine, DHL-morpholine, or parthenolide for 6 hours. RNA was then extracted and quantitative PCR was performed. Experiments were performed in triplicates. Lines represent mean for each specimen, with error bars representing the SD. Fold change was calculated by the delta-delta Ct method. (FIG. 9B) Graphical representation of the fold changes of HSPA1A in MV-411 cells, with the same experimental setup and analysis as FIG. […].
(§4) To compare these intracellular effects of DHL and its derivatives, quantitative PCR was performed (FIG. 8 and FIG. 9). MOLM-13 or MV-411 cells were seeded at 0.5 million cells per milliliter. Cells were treated for 6 hours with 20 μM of DHL, Leucodine, DHL-Morpholine, DHL-Proline, DHL-Piperidine or PTL, and then collected. Total RNA was extracted using the Qiashredder and Qiagen Rneasy Mini kits. […] Quantitative PCR was performed using probes for HMOX-1 (Hs01110251_m1), HSPA1A (Hs00359163_s1), and NFKB1 (Hs00765730_m1). […] Single-plex real-time PCR was performed in triplicates in a StepOne plus RealTime PCR system and analyzed with the StepOne Software. Fold change was calculated using the 2-DDCT method described by Livak and Schmittgen.

HMOX1 (Heme oxygenase 1) = test: Quantitative PCR of HMOX1 in MOLM-13 or MV-411 cells; format: cell-based; conditions: 20 μM, 6 hours, MOLM-13 and MV-411 cells
Procedure: as §2, §3, §4

NF-κB = test: Quantitative PCR of NF-κB transcript in MOLM-13 and MV-411 cells; format: cell-based; conditions: 20 μM, 6 hours
Procedure: as §2
as §4, with “collected.” for “collected. Total RNA was extracted using the Qiashredder and Qiagen Rneasy Mini kits.”

| Structure (SMILES) | LD50 (Kasumi-1) [µM] | LD50 (MOLM-13) [µM] | LD50 (THP-1) [µM] | LD50 (TUR) [µM] | LD50 (HL-60) [µM] | LD50 (MV4-11) [µM] | LD50 (U-937) [µM] | LD50 (KG-1) [µM] | anti-leukemic activity / in vitro cytotoxicity [1] | HSPA1A expression, fold change (HSPA1A) | HMOX1 expression, fold change (HMOX1 (Heme oxygenase 1)) | NF-κB transcript levels (NF-κB) |
| --- | --- | --- | --- | --- | --- | --- | --- | --- | --- | --- | --- | --- |
| CC1=CC(=O)C2=C(C)CCC3C(CN4CCOCC4)C(=O)OC3C12 (stereo not drawn) [DHL-Morpholine] | >160 | >160 | 54.4 | >160 | 166 | 21.1 | 74.7 | 129 | – | – | – | – |
| CC1=CC(=O)C2=C(C)CCC3C(CN4CCCCC4)C(=O)OC3C12 (stereo not drawn) [DHL-Piperidine] | >160 | 52.3 | 59.3 | >160 | 96.5 | 66.9 | >160 | 182 | – | – | – | – |
| CC1=CC(=O)C2=C(C)CCC3C(CN4CCCC4C(=O)O)C(=O)OC3C12 (stereo not drawn) [DHL-Proline] | 28.1 | 20.6 | 26.7 | 35.9 | 50.2 | 23.3 | 33.0 | 97.7 | most potent derivative | upregulated HMOX1 and HSPA1A the most | upregulated HMOX1 and HSPA1A the most | – |
| CC1=CC(=O)C2=C(C)CC[C@@H]3[C@H](OC(=O)[C@H]3C)[C@@H]12 [Leucodine, leucodine] | >160 | >160 | 121 | 105 | >160 | >160 | >160 | >160 | not found to be active | upregulated | upregulated | slightly downregulated |
